PubChem BioAssay (NCI)
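Results reflect a 48-hour exposure of cells in 96-well plates to compound at five concentrations. The concentration for 50% growth inhibition is given as GI50. At the TGI there is no net growth.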

Legend:
Assay in all cases: growth of human tumour cells (NCI), 48 h
786-0 renal = system: 786-0 renal
A498 renal = system: A498 renal
A549 NSCLC = system: A549 NSCLC
ACHN renal = system: ACHN renal
BT-549 breast = system: BT-549 breast
CAKI-1 renal = system: CAKI-1 renal
CCRF-CEM leukemia = system: CCRF-CEM leukemia
COLO 205 colon = system: COLO 205 colon
DU-145 prostate = system: DU-145 prostate
EKVX NSCLC = system: EKVX NSCLC
HCC-2998 colon = system: HCC-2998 colon
HCT-116 colon = system: HCT-116 colon
HCT-15 colon = system: HCT-15 colon
HL-60(TB) leukemia = system: HL-60(TB) leukemia
HOP-62 NSCLC = system: HOP-62 NSCLC
HOP-92 NSCLC = system: HOP-92 NSCLC
HS 578T breast = system: HS 578T breast
IGROV1 ovarian = system: IGROV1 ovarian
K-562 leukemia = system: K-562 leukemia
KM12 colon = system: KM12 colon
LOX IMVI melanoma = system: LOX IMVI melanoma
M14 melanoma = system: M14 melanoma
MALME-3M melanoma = system: MALME-3M melanoma
MCF7 breast = system: MCF7 breast
MDA-MB-231 breast = system: MDA-MB-231 breast
MDA-MB-435 = system: MDA-MB-435
MDA-MB-468 breast = system: MDA-MB-468 breast
MOLT-4 leukemia = system: MOLT-4 leukemia
NCI-H226 lung = system: NCI-H226 lung
NCI-H23 lung = system: NCI-H23 lung
NCI-H460 lung = system: NCI-H460 lung
NCI-H522 lung = system: NCI-H522 lung
NCI/ADR-RES ovarian = system: NCI/ADR-RES ovarian
OVCAR-3 ovarian = system: OVCAR-3 ovarian
OVCAR-4 ovarian = system: OVCAR-4 ovarian
OVCAR-5 ovarian = system: OVCAR-5 ovarian
OVCAR-8 ovarian = system: OVCAR-8 ovarian
PC-3 prostate = system: PC-3 prostate
RPMI-8226 leukemia = system: RPMI-8226 leukemia
RXF 393 renal = system: RXF 393 renal
SF-268 CNS = system: SF-268 CNS
SF-295 CNS = system: SF-295 CNS
SF-539 CNS = system: SF-539 CNS
SK-MEL-2 melanoma = system: SK-MEL-2 melanoma
SK-MEL-28 melanoma = system: SK-MEL-28 melanoma
SK-MEL-5 melanoma = system: SK-MEL-5 melanoma
SK-OV-3 ovarian = system: SK-OV-3 ovarian
SN12C renal = system: SN12C renal
SNB-19 CNS = system: SNB-19 CNS
SNB-75 CNS = system: SNB-75 CNS
SW-620 colon = system: SW-620 colon
T-47D breast = system: T-47D breast
TK-10 renal = system: TK-10 renal
U251 CNS = system: U251 CNS
UACC-257 melanoma = system: UACC-257 melanoma
UACC-62 melanoma = system: UACC-62 melanoma
UO-31 renal = system: UO-31 renal

Cc1occc1C(=O)NN1C(=O)/C(=C/C=C/c2ccc([N+](=O)[O-])o2)SC1=S
GI50 (786-0 renal): 2.01 µM
TGI (786-0 renal): 4.19 µM
GI50 (A498 renal): 19.4 µM
TGI (A498 renal): 33.6 µM
GI50 (A549 NSCLC): 4.82 µM
TGI (A549 NSCLC): 21.1 µM
GI50 (ACHN renal): 1.73 µM
TGI (ACHN renal): 3.23 µM
GI50 (BT-549 breast): 1.77 µM
TGI (BT-549 breast): 3.29 µM
GI50 (CAKI-1 renal): 1.82 µM
TGI (CAKI-1 renal): 4.01 µM
GI50 (CCRF-CEM leukemia): 1.41 µM
TGI (CCRF-CEM leukemia): 8.47 µM
GI50 (COLO 205 colon): 1.62 µM
TGI (COLO 205 colon): 3.23 µM
GI50 (DU-145 prostate): 3.11 µM
TGI (DU-145 prostate): 10.1 µM
GI50 (EKVX NSCLC): 1.83 µM
TGI (EKVX NSCLC): 4 µM
GI50 (HCC-2998 colon): 1.89 µM
TGI (HCC-2998 colon): 3.69 µM
GI50 (HCT-116 colon): 1.06 µM
TGI (HCT-116 colon): 2.54 µM
GI50 (HCT-15 colon): 0.645 µM
TGI (HCT-15 colon): 2.24 µM
GI50 (HL-60(TB) leukemia): 2.64 µM
TGI (HL-60(TB) leukemia): 11.6 µM
GI50 (HOP-62 NSCLC): 3.37 µM
TGI (HOP-62 NSCLC): 11.7 µM
GI50 (HOP-92 NSCLC): 2.56 µM
TGI (HOP-92 NSCLC): 5.59 µM
GI50 (HS 578T breast): 2.44 µM
TGI (HS 578T breast): 7.46 µM
GI50 (IGROV1 ovarian): 1.85 µM
TGI (IGROV1 ovarian): 3.56 µM
GI50 (K-562 leukemia): 0.586 µM
TGI (K-562 leukemia): 7.28 µM
GI50 (KM12 colon): 2.22 µM
TGI (KM12 colon): 6.21 µM
GI50 (LOX IMVI melanoma): 1.26 µM
TGI (LOX IMVI melanoma): 2.55 µM
GI50 (M14 melanoma): 1.51 µM
TGI (M14 melanoma): 2.93 µM
GI50 (MALME-3M melanoma): 1.5 µM
TGI (MALME-3M melanoma): 3.23 µM
GI50 (MCF7 breast): 1.5 µM
TGI (MCF7 breast): 5 µM
GI50 (MDA-MB-231 breast): 1.51 µM
TGI (MDA-MB-231 breast): 2.97 µM
GI50 (MDA-MB-435): 1.93 µM
TGI (MDA-MB-435): 4.26 µM
GI50 (MDA-MB-468 breast): 1.62 µM
TGI (MDA-MB-468 breast): 3.27 µM
GI50 (MOLT-4 leukemia): 2.13 µM
TGI (MOLT-4 leukemia): 8.32 µM
GI50 (NCI-H226 lung): 2.02 µM
TGI (NCI-H226 lung): 5.09 µM
GI50 (NCI-H23 lung): 1.78 µM
TGI (NCI-H23 lung): 3.6 µM
GI50 (NCI-H460 lung): 1.79 µM
TGI (NCI-H460 lung): 3.66 µM
GI50 (NCI-H522 lung): 1.65 µM
TGI (NCI-H522 lung): 3.21 µM
GI50 (NCI/ADR-RES ovarian): 2.55 µM
TGI (NCI/ADR-RES ovarian): 7.46 µM
GI50 (OVCAR-3 ovarian): 1.59 µM
TGI (OVCAR-3 ovarian): 3.07 µM
GI50 (OVCAR-4 ovarian): 2.76 µM
TGI (OVCAR-4 ovarian): 10.1 µM
GI50 (OVCAR-5 ovarian): 1.86 µM
TGI (OVCAR-5 ovarian): 3.68 µM
GI50 (OVCAR-8 ovarian): 2.5 µM
TGI (OVCAR-8 ovarian): 10.9 µM
GI50 (PC-3 prostate): 2.79 µM
TGI (PC-3 prostate): 10.2 µM
GI50 (RPMI-8226 leukemia): 1.67 µM
TGI (RPMI-8226 leukemia): 7.51 µM
GI50 (RXF 393 renal): 1.71 µM
TGI (RXF 393 renal): 3.2 µM
GI50 (SF-268 CNS): 2.49 µM
TGI (SF-268 CNS): 6.95 µM
GI50 (SF-295 CNS): 6.19 µM
TGI (SF-295 CNS): 18.8 µM
GI50 (SF-539 CNS): 1.72 µM
TGI (SF-539 CNS): 3.3 µM
GI50 (SK-MEL-2 melanoma): 1.73 µM
TGI (SK-MEL-2 melanoma): 3.56 µM
GI50 (SK-MEL-28 melanoma): 1.85 µM
TGI (SK-MEL-28 melanoma): 3.63 µM
GI50 (SK-MEL-5 melanoma): 1.64 µM
TGI (SK-MEL-5 melanoma): 3.13 µM
GI50 (SK-OV-3 ovarian): 5.82 µM
TGI (SK-OV-3 ovarian): 18.7 µM
GI50 (SN12C renal): 1.65 µM
TGI (SN12C renal): 3.96 µM
GI50 (SNB-19 CNS): 5.47 µM
TGI (SNB-19 CNS): 18 µM
GI50 (SNB-75 CNS): 1.66 µM
TGI (SNB-75 CNS): 7.48 µM
GI50 (SW-620 colon): 1.11 µM
TGI (SW-620 colon): 2.65 µM
GI50 (T-47D breast): 2.17 µM
TGI (T-47D breast): 5.57 µM
GI50 (TK-10 renal): 3.47 µM
TGI (TK-10 renal): 9.99 µM
GI50 (U251 CNS): 1.89 µM
TGI (U251 CNS): 4.62 µM
GI50 (UACC-257 melanoma): 2.05 µM
TGI (UACC-257 melanoma): 5.1 µM
GI50 (UACC-62 melanoma): 1.36 µM
TGI (UACC-62 melanoma): 2.77 µM
GI50 (UO-31 renal): 1.51 µM
TGI (UO-31 renal): 2.96 µM
